Experimental data reported in patent publication US20170291905A1, “ARGININE […] INHIBITORS AND USES THEREOF” (Epizyme, Inc., priority 2014, published 2017).

Tests used:
[1] = molecular target: T1, full-length human PRMT1 isoform 1 (GST-tagged) (Homo sapiens, UniProt Q99873); assay: PRMT1 biochemical assay (3H-SAM Flashplate, histone H4 36-50 peptide); conditions: 0.5 nM PRMT1, 30 min preincubation, 20 nM peptide
T1 construct: GST-tagged PRMT1 was eluted with 50 mM Tris, 2 mM glutathione, pH 7.8, dialysed in buffer A and concentrated; made in house; host or cells: High Five insect cells (baculovirus)
T1 sequence (Q99873 with tags, fused parts or gaps): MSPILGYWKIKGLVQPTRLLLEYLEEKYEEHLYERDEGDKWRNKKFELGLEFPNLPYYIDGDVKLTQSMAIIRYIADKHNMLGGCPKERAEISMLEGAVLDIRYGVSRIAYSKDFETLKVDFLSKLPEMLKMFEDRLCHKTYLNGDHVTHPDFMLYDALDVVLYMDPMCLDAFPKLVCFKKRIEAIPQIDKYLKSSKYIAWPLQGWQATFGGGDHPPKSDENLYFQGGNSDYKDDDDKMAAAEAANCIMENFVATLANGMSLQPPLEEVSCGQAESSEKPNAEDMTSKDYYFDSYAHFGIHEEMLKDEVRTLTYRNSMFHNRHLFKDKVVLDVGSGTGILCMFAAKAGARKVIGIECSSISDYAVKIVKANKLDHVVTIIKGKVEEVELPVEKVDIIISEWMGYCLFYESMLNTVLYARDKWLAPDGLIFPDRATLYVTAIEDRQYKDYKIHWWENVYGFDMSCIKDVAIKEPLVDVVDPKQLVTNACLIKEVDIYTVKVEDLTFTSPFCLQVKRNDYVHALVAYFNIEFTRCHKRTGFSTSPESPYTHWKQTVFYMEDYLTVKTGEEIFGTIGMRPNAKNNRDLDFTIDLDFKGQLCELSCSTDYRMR
Description: (§1) S-adenosylmethionine (SAM), S-adenosylhomocysteine (SAH), bicine, Tween20, dimethylsulfoxide (DMSO), bovine skin gelatin (BSG), and Tris(2-carboxyethyl)phosphine hydrochloride solution (TCEP) were purchased from Sigma-Aldrich at the highest level of purity possible. ^3H-SAM was purchase from American Radiolabeled Chemicals with a specific activity of 80 Ci/mmol. 384-well streptavidin Flashplates were purchased from PerkinElmer.
Peptide representative of human histone H4 residues 36-50 was synthesized with an N-terminal linker-affinity tag motif and a C-terminal amide cap by 21st Century Biochemicals. The peptide was purified by high-performance liquid chromatography (HPLC) to greater than 95% purity and confirmed by liquid chromatography mass spectrometry (LC-MS). The sequence was Biot-Ahx-[…]-amide (SEQ ID NO.:1).
Full-length human PRMT1 isoform 1 (NM_001536.5) transcript clone was amplified from an HEK 293 cDNA library, incorporating flanking 5′ sequence encoding a FLAG tag ([…]) (SEQ ID NO.:2) fused directly to Met 1 of PRMT1. The amplified gene was subcloned into pFastBacI (Life Technologies) modified to encode an N-terminal GST tag and a TEV cleavage sequence
Recombinant baculovirus were generated according to Bac-to-Bac kit instructions (Life Technologies). Protein over-expression was accomplished by infecting exponentially growing High Five insect cell culture at 1.5×10^6 cell/ml with 1:100 ratio of virus. Infections were carried out at 27° C. for 48 hours, harvested by centrifugation, and stored at −80° C. for purification.
GST-tagged PRMT1 was eluted with 50 mM Tris, 2 mM glutathione, pH 7.8, dialysed in buffer A and concentrated to 1 mg/mL. The purity of recovered protein was 73%. Reference: Wasilko, D. J. and S. E. Lee: “TIPS: titerless infected-cells preservation and scale-up” Bioprocess J., 5 (2006), pp. 29-32.
General Procedure for PRMT1 Enzyme Assays on Peptide Substrates.
The assays were all performed in a buffer consisting of 20 mM Bicine (pH=7.6), 1 mM TCEP, 0.005% BSG, and 0.002% Tween 20, prepared on the day of use. Compounds in 100% DMSO (1 ul) were spotted into a polypropylene 384-well V-bottom plates (Greiner) using a Platemate Plus outfitted with a 384-channel head (Thermo Scientific). DMSO (1 ul) was added to Columns 11, 12, 23, 24, rows A-H for the maximum signal control and 1 ul of SAH, a known product and inhibitor of PRMT1, was added to columns 11, 12, 23, 24, rows I-P for the minimum signal control. A cocktail (40 ul) containing the PRMT1 enzyme was added by Multidrop Combi (Thermo-Fisher). The compounds were allowed to incubate with PRMT1 for 30 min at room temperature, then a cocktail (10 ul) containing SAM and peptide was added to initiate the reaction (final volume=51 ul). The final concentrations of the components were as follows: PRMT1 was 0.5 nM, ^3H-SAM was 200 nM, non-radiolabeled SAM was 1.5 uM, peptide was 20 nM, SAH in the minimum signal control wells was 1 mM, and the DMSO concentration was 2%. The assays were stopped by the addition of non-radiolabeled SAM (10 ul) to a final concentration of 300 uM, which dilutes the ^3H-SAM to a level where its incorporation into the peptide substrate is no longer detectable. 50 ul of the reaction in the 384-well polypropylene plate was then transferred to a 384-well Flashplate and the biotinylated peptides were allowed to bind to the streptavidin surface for at least 1 hour before being washed once with 0.1% Tween20 in a Biotek ELx405 plate washer. The plates were then read in a PerkinElmer TopCount plate reader to measure the quantity of ^3H-labeled peptide bound to the Flashplate surface, measured as disintegrations per minute (dpm) or alternatively, referred to as counts per minute (cpm).
(§2) Where dpm=disintegrations per minute, cmpd=signal in assay well, and min and max are the respective minimum and maximum signal controls. […]

[2] = molecular target: full-length human PRMT6 (Flag- and His-tagged) (Homo sapiens, UniProt Q96LA8); assay: PRMT6 biochemical assay (3H-SAM Flashplate, histone H4 36-50 K44me1 peptide); conditions: 1 nM PRMT6, 30 min preincubation, 75 nM peptide
full-length human PRMT6 (Flag- and His-tagged), sequence (Q96LA8 with tags, fused parts or gaps): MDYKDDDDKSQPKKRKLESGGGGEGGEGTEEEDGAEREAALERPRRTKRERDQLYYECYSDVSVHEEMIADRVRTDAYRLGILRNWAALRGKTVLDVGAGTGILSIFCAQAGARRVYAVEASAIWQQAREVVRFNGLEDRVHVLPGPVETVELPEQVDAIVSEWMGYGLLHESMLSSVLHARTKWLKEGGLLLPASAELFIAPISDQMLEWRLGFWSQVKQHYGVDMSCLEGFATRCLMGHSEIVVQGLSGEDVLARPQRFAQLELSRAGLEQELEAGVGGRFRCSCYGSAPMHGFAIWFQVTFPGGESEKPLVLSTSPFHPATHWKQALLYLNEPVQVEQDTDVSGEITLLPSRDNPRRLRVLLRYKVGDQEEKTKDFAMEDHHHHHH
Description: as §1, with “(BSG), sodium butyrate” for “(BSG),”
Peptide representative of human histone H4 residues 36-50 was synthesized with an N-terminal linker-affinity tag motif and a C-terminal amide cap by 21st Century Biochemicals. The peptide was purified by high-performance liquid chromatography (HPLC) to greater than 95% purity and confirmed by liquid chromatography mass spectrometry (LC-MS). The sequence was Biot-Ahx-[…]-amide and contained a monomethylated lysine at position 44 (SEQ ID NO.:5).
Full-length human PRMT6 (NM_018137.2) transcript clone was amplified from an HEK 293 cDNA library, incorporating a flanking 5′ sequence encoding a FLAG tag ([…]) (SEQ ID NO.:6) fused directly to Ser 2 of PRMT6 and a 3′ sequence encoding a hexa His sequence (HHHHHH) (SEQ ID NO.: 17) fused directly to Asp 375. The amplified gene was subcloned into pFastBacMam (Viva Biotech).
Recombinant baculovirus were generated according to Bac-to-Bac kit instructions (Life Technologies). […] Infections were carried out at 37° C. for 48 hours, harvested by centrifugation, and stored at −80° C. for purification.
Column was washed with 20 mM imidazole in the same buffer and Flag-PRMT6-His was eluted with 150 mM imidazole. Pooled fractions were dialysed against buffer Ni-A and further purified by anti-flag M2 affinity chromatography. Flag-PRMT6-His was eluted with 200 ug/ml FLAG peptide in the same buffer. Pooled fractions were dialysed in 20 mM Tris, 150 mM NaCl, 10% glycerol and 5 mM β-mercaptoethanol, pH 7.8. The purity of recovered protein was 95%.
General Procedure for PRMT6 Enzyme Assays on Peptide Substrates.
The assays were all performed in a buffer consisting of 20 mM Bicine (pH=7.6), 1 mM TCEP, 0.005% BSG, and 0.002% Tween 20, prepared on the day of use. Compounds in 100% DMSO (1 ul) were spotted into a polypropylene 384-well V-bottom plates (Greiner) using a Platemate Plus outfitted with a 384-channel head (Thermo Scientific). DMSO (1 ul) was added to Columns 11, 12, 23, 24, rows A-H for the maximum signal control and 1 ul of SAH, a known product and inhibitor of PRMT6, was added to columns 11, 12, 23, 24, rows I-P for the minimum signal control. A cocktail (40 ul) containing the PRMT6 enzyme was added by Multidrop Combi (Thermo-Fisher). The compounds were allowed to incubate with PRMT6 for 30 min at room temperature, then a cocktail (10 ul) containing SAM and peptide was added to initiate the reaction (final volume=51 ul). The final concentrations of the components were as follows: PRMT6 was 1 nM, ^3H-SAM was 200 nM, non-radiolabeled SAM was 250 nM, peptide was 75 nM, SAH in the minimum signal control wells was 1 mM, and the DMSO concentration was 2%. The assays were stopped by the addition of non-radiolabeled SAM (10 ul) to a final concentration of 400 uM, which dilutes the ^3H-SAM to a level where its incorporation into the peptide substrate is no longer detectable. 50 ul of the reaction in the 384-well polypropylene plate was then transferred to a 384-well Flashplate and the biotinylated peptides were allowed to bind to the streptavidin surface for at least 1 hour before being washed once with 0.1% Tween20 in a Biotek ELx405 plate washer. The plates were then read in a PerkinElmer TopCount plate reader to measure the quantity of ^3H-labeled peptide bound to the Flashplate surface, measured as disintegrations per minute (dpm) or alternatively, referred to as counts per minute (cpm).
as §2

Row | IC50 [1] [nM] | IC50 [2] [nM] | SMILES
1 | 5850 | > 10000 | CNCCN(C)Cc1c([C@H]2CC[C@@]3(CC2)CC(C)(C)CO3)nnn1C [compound 53]
2 | 31 | 850 | CN(CCN)Cc1cn(C)nc1[C@H]1CC[C@]2(CC1)CC(C)(C)CO2 [compound 56]
3 | 9310 | 9920 | CNCCN(C)Cc1c([C@H]2CC[C@]3(CC2)CC(C)(C)CO3)nnn1C [compound 54]
4 | 7.28 | 191 | CN(CCN)Cc1cn(C)nc1[C@H]1CC[C@@]2(CC1)CC(C)(C)CO2 [compound 55]
